Experimental data published in patent US20090298817A1, “ANTI-AMNESIC COMPOUNDS AND PHARMACEUTICAL CO[…]” (priority 2008, published 2009).

Test system: amnesia induced by scopolamine in rats
Assay: passive avoidance test, amnesia induced by scopolamine in rats
Type: in vivo
Description: The purpose of the study is to examine the effects of etifoxine on amnesia, induced by a substance which is an antagonist of the cholinergic receptors in rats, scopolamine (see in particular Rush (1988) Behav. Neural. Biol. 1988 50:255-274).
Memory capacities are evaluated over the course of the passive avoidance test in a box with two compartments, dark and light. In a first step, the acquisition step, entering the dark compartment is associated with an unpleasant electric shock. In a second step, the retention step, the latency to enter the dark compartment is measured. The lower this latency, the more strongly the animal is suffering from amnesia.
Amnesia is induced by administering scopolamine 30 minutes before the information acquisition step.
Two series of tests were performed: • 1) Etifoxine was administered intraperitoneally 35 minutes before acquisition of the event. • 7 groups of 10 to 20 rats were formed, each group receiving the following respective treatments: • Group 1 (reference): scopolamine 0 mg/kg, etifoxine 0 mg/kg • Group 2 (control): scopolamine 0 mg/kg, etifoxine 50 mg/kg • Group 3: scopolamine 1.4 mg/kg, etifoxine 0 mg/kg • Group 4: scopolamine 1.4 mg/kg, etifoxine 6.2 mg/kg • Group 5: scopolamine 1.4 mg/kg, etifoxine 12.5 mg/kg • Group 6: scopolamine 1.4 mg/kg, etifoxine 25 mg/kg • Group 7: scopolamine 1.4 mg/kg, etifoxine 50 mg/kg • 2) Etifoxine was administered intraperitoneally immediately after acquisition of the event. • 7 groups of 10 rats were formed, each group receiving the following respective treatments: • Group 1 (reference): scopolamine 0 mg/kg, etifoxine 0 mg/kg • Group 2 (control): scopolamine 0 mg/kg, etifoxine 50 mg/kg • Group 3: scopolamine 1.4 mg/kg, etifoxine 0 mg/kg • Group 4: scopolamine 1.4 mg/kg, etifoxine 6.2 mg/kg • Group 5: scopolamine 1.4 mg/kg, etifoxine 12.5 mg/kg • Group 6: scopolamine 1.4 mg/kg, etifoxine 25 mg/kg • Group 7: scopolamine 1.4 mg/kg, etifoxine 50 mg/kg
For each test series and for each group the latency to enter the dark compartment was measured in the case of acquisition and in the case of retention.
For the first series of tests, a one-way ANOVA analysis was performed followed by the Student-Newman-Keuls test in order to find the differences between the groups. The difference is considered significant if the critical value P obtained was less than 0.05.
For the second series of tests, the non-parametric Kruskal-Wallis test was performed followed by the Dunn test in order to find the differences between the groups. The difference is considered significant if the critical value P obtained was less than 0.05.

CN1[C@@H]2C[C@@H](OC(=O)[C@H](CO)c3ccccc3)C[C@H]1[C@@H]1O[C@@H]12 [Scopolamine]
time period to enter the dark compartment vs. reference groups (rats, scopolamine 1.4 mg/kg 30 minutes before acquisition, etifoxine 0, FIGS. 1, 2): significantly shorter

CCNC1=Nc2ccc(Cl)cc2C(C)(c2ccccc2)O1.Cl (stereo not shown) [etifoxine, 6-chloro-2-ethylamino-4-methyl-4-phenyl-4H-[3,1]benzoxazine hydrochloride]
anti-amnesic action (animals, model where memory disorder is induced by scopolamine (summary statement)): exhibits anti-amnesic action | effect on the amnesic effects of scopolamine (latency to enter the dark compartment, retention) (rats, etifoxine 6.2-50 mg/kg intraperitoneally 35 minutes before acquisition, scopolamine 1.4 mg/kg 30 minutes before acquisition, FIG. 1): counteracts the amnesic effects of scopolamine according to an inverted U-shaped curve | effect on the amnesic effects of scopolamine (latency to enter the dark compartment, retention) (rats, etifoxine 6.2-50 mg/kg intraperitoneally immediately after acquisition, scopolamine 1.4 mg/kg 30 minutes before acquisition, FIG. 2): counteracts the amnesic effects of scopolamine according to an inverted U-shaped curve
